Test results as given in patent US4803224A, “Antiviral antibiotic complex” (Bristol-Myers Company, priority 1986, dated 1989).
“Also recorded” adds a separate entry of the source. Read-outs that look alike come from different tables or passages of the source.

Tests used:
Assay type in all cases: cell-based
[1] = tested on: Mycobacterium smegmatis strain M6-3; test: Paper disc-agar diffusion method
Excerpt: (§1) The production of BU-2231 in the fermentation medium may be followed readily during the course of fermentation by the paper disc-agar diffusion method using Bacillus subtilis PCI-219 and Mycobacterium smegmatis strain M6-3 as test organisms. The BU-2231 A and BU-2231 B components of BU-2231 antibiotic complex as well as the co-produced aminoglycoside complex (also referred to as the "nebramycin factors" or "nebramycin components") are believed to be active against B. subtilis but only the BU-2231 A and B comppnents show activity against Mycobacterium smegmatis strain M6-3.

[2] = tested on: Bacillus subtilis PCI-219; test: Paper disc-agar diffusion method; details: "are believed to be"
Excerpt: as §1

[3] = tested on: herpes simplex virus type I (HSV-1); test: Dye-uptake assay, HSV-1-Vero cell system; details: for Dye-uptake assay, Activity vs HSV-1 (ID50): Vero cell
Description: (§2) The results are shown in Table 2 together with their cytotoxicity against the host cells.
In order to examine the relationship between peptide chain length and antiviral activity, a partial acid hydrolysis of BU-2231 V was carried out by heating with 6N HCl at 100 deg. C. for one hour. The hydrolyzate was chromatographed on CM-cellulose to yield 8 peptide fragments. Number of D-α,γ-diaminobutyric acid residues in each peptide was determined by the DNP method and antiviral activity against HSV-1 assessed by the dye-uptake assay (Table 4).

[4] = tested on: Staphylococcus aureus Smith; test: 2-fold serial broth dilution, nutrient broth
[5] = tested on: Serratia marcescens A20019; test: 2-fold serial broth dilution, nutrient broth
[6] = tested on: Enterobacter cloacae A9656; test: 2-fold serial broth dilution, nutrient broth
Escherichia coli Juhl = test: 2-fold serial broth dilution, nutrient broth
[7] = tested on: Pseudomonas aeruginosa A9930; test: 2-fold serial broth dilution, nutrient broth
[8] = tested on: Haemophilus influenza A2241; test: 2-fold serial broth dilution, nutrient broth
[9] = tested on: herpes simplex virus type I (HSV-1); test: Plaque reduction assay, HSV-1-Vero cell system; details: for Antiviral activity (in words): HSV-1, relative to the compounds tested; for Plaque reduction assay, Activity vs HSV-1 (ID50): Vero cell
[10] = tested on: Klebsiella pneumoniae A9977; test: 2-fold serial broth dilution, nutrient broth
[11] = tested on: Gram-positive and Gram-negative bacteria; test: In vitro antibacterial activity, 2-fold serial broth dilution, overall
[12] = tested on: Streptococcus faecalis A9612; test: 2-fold serial broth dilution, nutrient broth
Proteus mirabilis A9554 = test: 2-fold serial broth dilution, nutrient broth
[13] = tested on: Staphylococcus aureus BX-1633-2; test: 2-fold serial broth dilution, nutrient broth
Vero cell [14] = test: Cytotoxicity against host cells (plaque reduction assay)
Excerpt: as §2

Vero cell [15] = test: Cytotoxicity against host cells (dye-uptake assay)
Excerpt: as §2

Molecule	Activity against Mycobacterium smegmatis strain M6-3 (in words) [1]	Activity against B. subtilis (in words) [2]	Dye-uptake assay, Activity vs HSV-1 (ID50) [3] [µg/mL]	MIC by TDT [4] [µg/mL]	MIC by TDT [5] [µg/mL]	MIC by TDT [6] [µg/mL]	MIC by TDT (Escherichia coli Juhl) [µg/mL]	MIC by TDT [7] [µg/mL]	MIC by TDT [8] [µg/mL]	Plaque reduction assay, Activity vs HSV-1 (ID50) [9] [µg/mL]	MIC by TDT [10] [µg/mL]	Antibacterial activity (in words) [11]	MIC by TDT [12] [µg/mL]	MIC by TDT (Proteus mirabilis A9554) [µg/mL]	MIC by TDT [13] [µg/mL]	also measured
Cc1c(N)nc([C@H](CC(N)=O)NC[C@H](N)C(N)=O)nc1C(=O)N[C@H](C(=O)N[C@H](C)[C@@H](O)CC(=O)N[C@H](C(=O)NC(O[C@@H]1O[C@@H](C)[C@@H](N)[C@@H](O)[C@H]1O)C(O)c1nc(-c2nc(C(=O)NCCCC(N)CC(=O)NCCCNCCCCN)cs2)cs1)[C@@H](C)O)[C@H](O[C@@H]1O[C@@H](CO)[C@@H](O)[C@H](O)[C@@H]1O[C@H]1O[C@H](CO)[C@@H](O)[C@H](OC(N)=O)[C@@H]1O)c1c[nH]cn1 (stereo partly shown) [BU-2231 A]	show activity	active														
Cc1c(N)nc([C@H](CC(N)=O)NC[C@@H](N)C(N)=O)nc1C(=O)N[C@H](C(=O)N[C@H](C)[C@@H](O)CC(=O)N[C@@H](C(=O)NC(O[C@@H]1O[C@@H](C)[C@@H](N)[C@@H](O)[C@H]1O)C(O)c1nc(-c2nc(C(=O)NCCCNCCCCN)cs2)cs1)[C@@H](C)O)C(O[C@@H]1O[C@@H](CO)[C@H](O)[C@@H](O)[C@@H]1O[C@H]1O[C@H](CO)[C@@H](O)[C@@H](OC(N)=O)[C@@H]1O)c1cnc[nH]1 (stereo partly shown) [BU-2231 B]	show activity	active														
NCC[C@@H](N)C(=O)O [D-α,γ-DAB, D-α,γ-diaminobutyric acid]																IC50 ([3]; Human alphaherpesvirus 1, Vero, partial hydrolyzates of BU-2231V, read-out: Anti-HSV-1 activity ID50): > 660 µg/mL
α-poly-L-lysine [α-Poly-L-lysine (MW: 3,500)]			100	12.5	> 100	> 100	12.5	> 100	100	42	12.5	moderate inhibitory activity	> 100	50	25	Antiviral activity (in words) ([9]; listed as lower molecular α-poly-L-lysine): least active; Antibacterial activity (in words) ([11]; listed as α-poly-L-lysines): little weaker than others
α-poly-L-lysine [α-Poly-L-lysine (MW: 25,000)]			> 20							1.8						Antiviral activity (in words) ([9]; listed as higher molecular α-poly-L-lysine): slightly less active than BU-2231 V
ε-poly-L-lysine			2.7	6.3	25	25	6.3	12.5	12.5	2.6	6.3	moderate inhibitory activity; also recorded: comparable	50	6.3	6.3	Plaque reduction assay, Cytotoxicity vs Vero cell (TCID50) (Vero cell [14]): 70 µg/mL; Antiviral activity (in words) ([3]; HSV-1): comparably active; Dye-uptake assay, Cytotoxicity vs Vero cell (TCID50) (Vero cell [15]): > 100 µg/mL; Antiviral activity (in words) [9]: slightly less active than BU-2231 V
